Laboratory results from patent US20230348424A1, “HETEROCYCLIC COMPOUNDS AND METHODS OF USE” (Schrödinger, Inc., priority 2022, published 2023).

Key:
[1] = target: SOS1:KRAS (G12C) interaction (Homo sapiens (Human), UniProt Q07889); experiment: SOS1 KRas(G12C) FRET Assay; format: binding; conditions: 0.5 nM His10-SOS1 (res. 564-1049), 2.5 nM GST-KRAS G12C (res. 1-169), 2 hrs at RT
In short: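 GST-KRAS G12C (res. 1-169) at 2.5 nM and His10-SOS1 (res. 564-1049) at 0.5 nM, final, in PBS with 0.1% BSA, 5 mM MgCl2, 100 mM KF, 5 mM DTT and 0.5% DMSO. After 2 h at RT, FRET read at 665/615 nm and normalized to DMSO and no-SOS1 controls. IC50 by non-linear regression.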

human SOS1 = human SOS1 (Homo sapiens (Human), UniProt Q07889); experiment: Surface Plasmon Resonance (SPR) SOS1 Binding Assay; conditions: biotinylated SOS1 (res. 564-1049), Biacore 8K, 25° C., kinetic or steady state fit, 1:1 binding; read-out: hSOS1 KD
In short: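 Biotinylated Avi-tagged human SOS1 (res. 564-1049) captured on streptavidin chip (~3,000 RU); compounds injected 60 s, dissociation 600 s, at 25° C in Tris pH 8.0 buffer with 5% DMSO. Reference- and blank-subtracted; KD from kinetic or steady-state 1:1 binding fit.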

N-((R)-1-(3-(difluoromethyl)-2-fluorophenyl)ethyl)-1-(1- (difluoromethyl)cyclopropyl)-4-(((1R,5S,6s)-3-methyl-3-azabicyclo[3.1.0]hexan-6-yl)amino)-6- oxo-1,6-dihydropyridine-3-carboxamide [Example 55]
IC50 [1]: 23.6 nM | Kd (human SOS1): 12 nM
